Assay results from ChEMBL document CHEMBL4419178, “Yap1 inhibitors that target the interaction of yap1 with oct4” (2018).
Activity calls are given as the source filed them. The rule behind the calls is not given here.

Key:
NCI-H146 [1] = assay: Inhibition of self-renewal capacity in methotrexate insensitive stem-like side-population cells of human NCI-H146 cells assessed as reduction in number of spheres at 2 uM incubated for 3 days after 7 days methotrexate exposure by sphere formation assay; type: functional
[2] = target: Transcriptional coactivator YAP1 (Homo sapiens) (UniProt P46937); assay: Inhibition of YAP1 (unknown origin) assessed as disruption in YAP1/OCT4 interaction at 10 uM by ELISA relative to control
[3] = target: Transcriptional coactivator YAP1 (Homo sapiens) (UniProt P46937); assay: Inhibition of YAP1 (unknown origin) assessed as disruption in YAP1/OCT4 interaction at 50 uM by cell based assay
NCI-H1650 [4] = assay: Inhibition of self-renewal capacity in stem-like side-population cells of human NCI-H1650 cells assessed as reduction in number of spheres at 5 to 50 uM incubated for 10 days by sphere formation assay; type: functional, cell-based
NCI-H1650 [5] = assay: Inhibition of adherence-independent cell growth in human NCI-H1650 cells at 5 uM incubated for 33 days; type: functional, cell-based
NCI-H1650 [6] = assay: Inhibition of adherence-independent cell growth in human NCI-H1650 cells at 10 uM incubated for 33 days; type: functional, cell-based
NCI-H1975 = assay: Cytotoxicity in gefitinib and erlotinib resistant human NCI-H1975 cells assessed as reduction in cell viability at 1 to 10 uM incubated for 72 hrs by MTT assay; type: functional, cell-based
[7] = target: Transcriptional coactivator YAP1 (Homo sapiens) (UniProt P46937); assay: Inhibition of YAP1 in human NCI-H1650 cells assessed as suppression of Sox2 mRNA expression at 5 to 10 uM incubated for 72 hrs by RT-PCR method; type: cell-based
[8] = target: Transcriptional coactivator YAP1 (Homo sapiens) (UniProt P46937); assay: Inhibition of YAP1 in human NCI-H1703 cells assessed as suppression of Sox2 mRNA expression at 5 to 10 uM incubated for 72 hrs by RT-PCR method; type: cell-based
[9] = target: Transcriptional coactivator YAP1 (Homo sapiens) (UniProt P46937); assay: Inhibition of YAP1 in human NCI-H146 cells assessed as suppression of Sox2 mRNA expression at 5 to 10 uM incubated for 72 hrs by RT-PCR method; type: cell-based
NCI-H1650 [10] = assay: Effect on expression of Oct4 mRNA expression in human NCI-H1650 cells at 5 to 10 uM incubated for 72 hrs by RT-PCR method; type: cell-based; conditions: nci-h1650, 72 h
NCI-H1650 [11] = assay: Effect on expression of Nanog mRNA expression in human NCI-H1650 cells at 5 to 10 uM incubated for 72 hrs by RT-PCR method; type: cell-based; conditions: nci-h1650, 72 h
NCI-H1703 [12] = assay: Effect on expression of Oct4 mRNA expression in human NCI-H1703 cells at 5 to 10 uM incubated for 72 hrs by RT-PCR method; type: cell-based; conditions: nci-h1703, 72 h
NCI-H1703 [13] = assay: Effect on expression of Nanog mRNA expression in human NCI-H1703 cells at 5 to 10 uM incubated for 72 hrs by RT-PCR method; type: cell-based; conditions: nci-h1703, 72 h
NCI-H146 [14] = assay: Effect on expression of Oct4 mRNA expression in human NCI-H146 cells at 5 to 10 uM incubated for 72 hrs by RT-PCR method; type: cell-based; conditions: nci-h146, 72 h
NCI-H146 [15] = assay: Effect on expression of Nanog mRNA expression in human NCI-H146 cells at 5 to 10 uM incubated for 72 hrs by RT-PCR method; type: cell-based; conditions: nci-h146, 72 h
[16] = target: Transcriptional coactivator YAP1 (Homo sapiens) (UniProt P46937); assay: Inhibition of YAP1 in human NCI-H1650 cells assessed as suppression of HK2 mRNA expression at 5 to 10 uM incubated for 72 hrs by RT-PCR method; type: cell-based
[17] = target: Transcriptional coactivator YAP1 (Homo sapiens) (UniProt P46937); assay: Inhibition of YAP1 in human NCI-H1650 cells assessed as suppression of PDK2 mRNA expression at 5 to 10 uM incubated for 72 hrs by RT-PCR method; type: cell-based
[18] = target: Transcriptional coactivator YAP1 (Homo sapiens) (UniProt P46937); assay: Inhibition of YAP1 in human NCI-H1703 cells assessed as suppression of HK2 mRNA expression at 5 to 10 uM incubated for 72 hrs by RT-PCR method; type: cell-based
[19] = target: Transcriptional coactivator YAP1 (Homo sapiens) (UniProt P46937); assay: Inhibition of YAP1 in human NCI-H1703 cells assessed as suppression of PDK2 mRNA expression at 5 to 10 uM incubated for 72 hrs by RT-PCR method; type: cell-based
[20] = target: Transcriptional coactivator YAP1 (Homo sapiens) (UniProt P46937); assay: Inhibition of YAP1 in human NCI-H146 cells assessed as suppression of HK2 mRNA expression at 5 to 10 uM incubated for 72 hrs by RT-PCR method; type: cell-based
[21] = target: Transcriptional coactivator YAP1 (Homo sapiens) (UniProt P46937); assay: Inhibition of YAP1 in human NCI-H146 cells assessed as suppression of PDK2 mRNA expression at 5 to 10 uM incubated for 72 hrs by RT-PCR method; type: cell-based
[22] = target: Transcriptional coactivator YAP1 (Homo sapiens) (UniProt P46937); assay: Inhibition of YAP1 in human NCI-H1650 cells assessed as suppression of PD-L1 mRNA expression at 5 to 10 uM incubated for 72 hrs by RT-PCR method; type: cell-based
[23] = target: Transcriptional coactivator YAP1 (Homo sapiens) (UniProt P46937); assay: Inhibition of YAP1 in human NCI-H1703 cells assessed as suppression of PD-L1 mRNA expression at 5 to 10 uM incubated for 72 hrs by RT-PCR method; type: cell-based
NCI-H1650 [24] = assay: Inhibition of YAP1/TEAD2 interaction in human NCI-H1650 cells assessed as suppression of CTGF mRNA expression at 5 to 10 uM incubated for 72 hrs by RT-PCR method; type: cell-based
NCI-H1703 [25] = assay: Inhibition of YAP1/TEAD2 interaction in human NCI-H1703 cells assessed as suppression of CTGF mRNA expression at 5 to 10 uM incubated for 72 hrs by RT-PCR method; type: cell-based
[26] = target: Transcriptional coactivator YAP1 (Homo sapiens) (UniProt P46937); assay: Inhibition of YAP1 in human NCI-H1650 cells assessed as suppression of fibronectin mRNA expression at 5 to 10 uM incubated for 72 hrs by RT-PCR method; type: cell-based
[27] = target: Transcriptional coactivator YAP1 (Homo sapiens) (UniProt P46937); assay: Inhibition of YAP1 in human NCI-H1650 cells assessed as suppression of vimentin mRNA expression at 5 to 10 uM incubated for 72 hrs by RT-PCR method; type: cell-based
[28] = target: Transcriptional coactivator YAP1 (Homo sapiens) (UniProt P46937); assay: Inhibition of YAP1 in human NCI-H1703 cells assessed as suppression of fibronectin mRNA expression at 5 to 10 uM incubated for 72 hrs by RT-PCR method; type: cell-based
[29] = target: Transcriptional coactivator YAP1 (Homo sapiens) (UniProt P46937); assay: Inhibition of YAP1 in human NCI-H1703 cells assessed as suppression of vimentin mRNA expression at 5 to 10 uM incubated for 72 hrs by RT-PCR method; type: cell-based
NCI-H1703 [30] = assay: Inhibition of adherence-independent cell growth in human NCI-H1703 cells at 10 uM incubated for 33 days; type: functional, cell-based
NCI-H1703 [31] = assay: Inhibition of adherence-independent cell growth in human NCI-H1703 cells at 5 uM incubated for 33 days; type: functional, cell-based
[32] = target: Transcriptional coactivator YAP1 (Homo sapiens) (UniProt P46937); assay: Inhibition of YAP1 in human NCI-H1650 cells assessed as disruption in YAP1/OCT4 interaction at 20 to 50 uM incubated for 48 hrs by proximity ligation assay; type: cell-based
NCI-H1650 [33] = assay: Inhibition of YAP1 in human NCI-H1650 cells assessed as disruption in YAP1/TEAD2 interaction at 20 to 50 uM incubated for 48 hrs by proximity ligation assay; type: cell-based
[34] = target: Transcriptional coactivator YAP1 (Homo sapiens) (UniProt P46937); assay: Inhibition of YAP1 (unknown origin) assessed as disruption in YAP1/OCT4 interaction at 5 uM by ELISA relative to control

Chain of Transcriptional coactivator YAP1 (Homo sapiens) (P46937 whole entry): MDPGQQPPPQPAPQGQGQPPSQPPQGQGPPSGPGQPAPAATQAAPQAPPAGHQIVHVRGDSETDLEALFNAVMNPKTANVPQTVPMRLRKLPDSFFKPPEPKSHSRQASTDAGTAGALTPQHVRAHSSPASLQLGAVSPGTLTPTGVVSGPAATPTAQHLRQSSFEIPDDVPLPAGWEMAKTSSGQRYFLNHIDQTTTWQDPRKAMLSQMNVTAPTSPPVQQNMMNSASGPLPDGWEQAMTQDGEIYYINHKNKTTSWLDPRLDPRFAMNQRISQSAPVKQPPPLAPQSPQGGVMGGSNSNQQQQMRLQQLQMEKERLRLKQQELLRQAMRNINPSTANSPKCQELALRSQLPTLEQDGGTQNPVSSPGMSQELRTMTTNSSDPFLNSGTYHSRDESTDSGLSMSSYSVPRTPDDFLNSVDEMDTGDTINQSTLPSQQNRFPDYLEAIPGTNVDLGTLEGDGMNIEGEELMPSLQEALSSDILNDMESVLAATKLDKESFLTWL

NC(=O)[C@H](Cc1ccc(OCc2ccccc2)cc1)NC(=O)CC1CCN(C(=O)CCc2ccccc2)CC1
inhibition (NCI-H146 [1]): Active

COC(=O)[C@H](Cc1ccc(OCc2ccccc2)cc1)NC(=O)CC1CCN(C(=O)c2ccccc2)CC1
inhibition [2]: 75% | inhibition [3]: 84% | inhibition (NCI-H1650 [4]): Active

COC(=O)[C@H](Cc1ccc(OCc2ccccc2)cc1)NC(=O)CC1CCN(Cc2ccccc2)CC1
inhibition [2]: 57% | inhibition [3]: 70%

O=[N+]([O-])c1nc[nH]c1/C=C/c1cccc(F)c1
inhibition (NCI-H1650 [5]): Active | inhibition (NCI-H1650 [6]): Active | inhibition (NCI-H146 [1]): Active | Activity (NCI-H1975): Active | inhibition [7]: Active | inhibition [8]: Active | inhibition [9]: Active | Activity (NCI-H1650 [10]): Non-Toxic | Activity (NCI-H1650 [11]): Non-Toxic | Activity (NCI-H1703 [12]): Non-Toxic | Activity (NCI-H1703 [13]): Non-Toxic | Activity (NCI-H146 [14]): Non-Toxic | Activity (NCI-H146 [15]): Non-Toxic | inhibition [16]: Active | inhibition [17]: Active | inhibition [18]: Active | inhibition [19]: Active | inhibition [20]: Active | inhibition [21]: Active | inhibition [22]: Active | inhibition [23]: Active | inhibition (NCI-H1650 [24]): inactive | inhibition (NCI-H1703 [25]): inactive | inhibition [26]: Active | inhibition [27]: Active | inhibition [28]: Active | inhibition [29]: Active | inhibition (NCI-H1703 [30]): Active | inhibition (NCI-H1703 [31]): Active

CCOc1ccc(CCC(=O)N2CCC(CC(=O)N[C@@H](Cc3ccc(OCc4ccccc4)cc3)C(=O)O)CC2)cc1
inhibition [32]: Active | inhibition (NCI-H1650 [33]): Active

CC(C)NC(=O)[C@H](Cc1ccc(OCc2ccccc2)cc1)NC(=O)CC1CCN(C(=O)OC(C)(C)C)CC1
inhibition [34]: 95% | inhibition [3]: 83%

O=C(CC1CCN(C(=O)CCc2ccccc2)CC1)N[C@@H](Cc1ccc(OCc2ccccc2)cc1)C(=O)NC1CCCCC1
inhibition [34]: 90% | inhibition [3]: 70%
